Assay results from patent publication US20110070213A1, “DERMAL COMPOSITIONS CONTAINING COENZYME Q AS THE ACTIVE INGREDIENT” (KANEKA CORPORATION, priority 2000, published 2011).

Tests used:
incision wound = experiment: Incised wound healing test in rats; type: in vivo, SD rats; settings: 1% ointment, 0.2 g/day for 4 days; four days after incision
Excerpt: SD rats (male, 12-week-old) were clipped of hairs and divided into groups of 10 animals to make the mean body weights of the groups roughly the same, and subjected to the test. Each animal was given an incision wound along the median line under diethyl ether anesthesia. The incision wound was stapled at three sites using Michel's clips, and a 1% oxidized coenzyme Q10 ointment or a 1% reduced coenzyme Q10 ointment was applied at a dose of 0.2 g/day for 4 days. Two control groups, namely a nontreated group and an ointment base group treated with the same dose of the ointment base, were used. Three days after incision, the Michel's clips were removed and, four days after incision, each animal was euthanized by overanesthesia with diethyl ether, the skin around the incision was peeled off, and skin sections were prepared. The skin sections were measured for tension on a tensile tester.

[1] = Percutaneous absorption test (coenzyme Q10 in skin after dermal application); type: in vivo, hairless rats; settings: for Coenzyme Q10 concentration in skin / Reduced coenzyme Q10 concentration in skin: mean ± SD
Experimental: The test sample 1 and comparative sample 1 were used as test substances. The test was carried out using male hairless rats (weighing 250 to 300 g) fed under well-fed conditions. A 0.1-g portion of the test sample 1, comparative sample 1, or PEG 1500 as a control was applied to an area of 3 cm square on the back of each hairless rat lightly anesthetized with ether. Three hours, 8 hours or 24 hours after application, the rat was sacrificed by euthanasia, the applied area was washed thoroughly, and a skin sample was taken. The skin sample was homogenized and extracted with propanol, the extract was concentrated using a solid phase column, and the amount of coenzyme Q10 in the skin was determined by high-performance liquid chromatography.
Each of the skin samples mentioned above was homogenized and extracted with hexane, the extract was evaporated to dryness and dissolved in ethanol, and the proportion of reduced coenzyme Q10 in skin was determined by high-performance liquid chromatography with an electrochemical detector. Each numerical value means the mean±standard deviation.
The test was carried out in the same manner as in Example 1 using the test samples 2, 3, 4 and 5 as well as the comparative sample 1 as test samples.
In FIG. 1, the vertical axis denotes the total amount of coenzyme Q10 and the amount of reduced coenzyme Q10 in skin at 3 hours after application, and the horizontal axis denotes the content (% by weight) of reduced coenzyme Q10 relative to the total amount of coenzyme Q10 in the sample applied. Each bar indicates the mean value.

[2] = as compared with 100% oxidized coenzyme Q10

Structure (SMILES)	Skin repair (tension of skin sections on a tensile tester, in words) (incision wound)	Coenzyme Q10 concentration in skin, relative value in parentheses (oxidized coenzyme Q10 = 100) ([1]; 3 hr)	Reduced coenzyme Q10 concentration in skin, relative value in parentheses (oxidized coenzyme Q10 = 100) ([1]; 3 hr)	Coenzyme Q10 concentration in skin ([1]; 3 hr after application of 0.1 g PEG 1500 ointment (0.1 g coenzyme Q10 per 10 ml) to 3 cm square back skin) [µg/g]	Reduced coenzyme Q10 concentration in skin ([1]; 3 hr after application, HPLC with electrochemical detector) [µg/g]	Coenzyme Q10 concentration in skin, relative value in parentheses (oxidized coenzyme Q10 = 100) ([1]; 8 hr)	Reduced coenzyme Q10 concentration in skin, relative value in parentheses (oxidized coenzyme Q10 = 100) ([1]; 8 hr)	Coenzyme Q10 concentration in skin ([1]; 8 hr after application of 0.1 g PEG 1500 ointment to back skin) [µg/g]	Reduced coenzyme Q10 concentration in skin ([1]; 8 hr after application) [µg/g]	Coenzyme Q10 concentration in skin, relative value in parentheses (oxidized coenzyme Q10 = 100) ([1]; 24 hr)	Reduced coenzyme Q10 concentration in skin, relative value in parentheses (oxidized coenzyme Q10 = 100) ([1]; 24 hr)	Coenzyme Q10 concentration in skin ([1]; 24 hr after application of 0.1 g PEG 1500 ointment to back skin) [µg/g]	Reduced coenzyme Q10 concentration in skin ([1]; 24 hr after application) [µg/g]	Increase of the amount of coenzyme Q10 in skin (in words) [1, 2]	Increase of the amount of reduced coenzyme Q10 in skin (in words) [1, 2]
COC1=C(OC)C(=O)C(C/C=C(\C)CC/C=C(\C)CC/C=C(\C)CC/C=C(\C)CC/C=C(\C)CC/C=C(\C)CC/C=C(\C)CC/C=C(\C)CC/C=C(\C)CCC=C(C)C)=C(C)C1=O [Oxidized coenzyme Q10, oxidized coenzyme Q10, reference compound]	skin repair promoting effect														
COc1c(O)c(C)c(C/C=C(\C)CC/C=C(\C)CC/C=C(\C)CC/C=C(\C)CC/C=C(\C)CC/C=C(\C)CC/C=C(\C)CC/C=C(\C)CC/C=C(\C)CCC=C(C)C)c(O)c1OC [Reduced coenzyme Q10, reduced coenzyme Q10]	skin repair promoting effect	(165***)	(414***)	13.72 ± 0.70	12.55 ± 0.51	(228*)	(317**)	17.96 ± 4.85	15.84 ± 4.56	(206*)	(239*)	15.68 ± 3.95	12.99 ± 4.81	very effective in increasing the amount of coenzyme Q10 in skin	very effective in increasing the amount of reduced coenzyme Q10 in skin
